Here are results for 2 compounds from patent US4308251A, “Controlled release formulations of orally-active medicaments” (Boots Pharmaceuticals, Inc., priority 1980, dated 1981).

The test system of data set [1] is patients with pain (chronic bursitis, knee injury). Type of data set: in vivo, human. An excerpt: patient two is a housewife who suffered a painful right shoulder for two years. Consultants believed this condition was a result of chronic bursitis.
patient three is a person who is employed full time in an accounting department of a small company. […] While skating they fell, causing a partial tear of the medial collateral ligament and medial meniscus of the left knee. Support wrappings and acetaminophen were tried. […] This dosage regimen was maintained throughout the patient's convalescence.
patient one sustained a traumatic injury to the medial portion of their right knee during a basketball game.

The test system of a further data set is patients taking aspirin. As to conditions: background statement; cited from earlier work.
Setting [2] is: Patient No. 1, aspirin as regularly prescribed.

For the compound `CC(=O)Nc1ccc(O)cc1` [acetaminophen], the pain relief entry in data set [1] (Patient No. 2, regular acetaminophen) was “only partial and temporary”.
As for `CC(=O)Oc1ccccc1C(=O)O` [aspirin, acetylsalicylic acid], in data set [1] (setting [2]), the “effect on shoulder pain” value is “ineffective” and the side effects result was “epigastric discomfort”. The “patients considered treatment failures because of side effects” value with patients taking aspirin was “Approximately sixty”.
